Measurements: US8609635B2, “Fused tricyclic silyl compounds and methods of use thereof for the treatment of viral diseases” (priority 2010, dated 2013)
Read-outs that look alike come from different tables or passages of the source.

How the values were obtained:
HCV replicon gt1b_con1 = experiment: Cell-based HCV replicon assay (TaqMan), genotype 1b (Con1); details: replicon 1b (Con1), replicon RNA by TaqMan, day 3
Procedure: (§1) Measurement of inhibition by compounds of the present invention was performed using the HCV replicon system. Several different replicons encoding different HCV genotypes or mutations were used. In addition, potency measurements were made using different formats of the replicon assay, including different ways of measurements and different plating formats. See Jan M. Vrolijk et al., A replicons-based bioassay for the measurement of interferons in patients with chronic hepatitis C, 110 J. VIROLOGICAL METHODS 201 (2003); Steven S. Carroll et al., Inhibition of Hepatitis C Virus RNA Replication by 2′-Modified Nucleoside Analogs, 278(14) J. BIOLOGICAL […] 11979 (2003). However, the underlying principles are common to all of these determinations, and are outlined below.
(§2) Compounds of the present invention were assayed for cell-based anti-HCV activity using the following protocol. Replicon cells were seeded at 5000 cells/well in 96-well collagen I-coated Nunc plates in the presence of the test compound. Various concentrations of test compound, typically in 10 serial 2-fold dilutions, were added to the assay mixture, with the starting concentration ranging from 250 μM to 1 μM. The final concentration of DMSO was 0.5%, fetal bovine serum was 5%, in the assay media. Cells were harvested on day 3 by the addition of 1× cell lysis buffer (Ambion cat #8721). The replicon RNA level was measured using real time PCR (TaqMan® assay). The amplicon was located in 5B. The PCR primers were: 5B.2F, […] (SEQ. ID NO. 1); 5B.2R, […] (SEQ. ID NO. 2); the probe sequence was FAM-labeled […] (SEQ. ID NO. 3). GAPDH RNA was used as endogenous control and was amplified in the same reaction as NS5B (multiplex PCR) using primers and VIC-labeled probe recommended by the manufacturer (PE Applied Biosystem). The real-time RT-PCR reactions were run on ABI PRISM 7900HT Sequence Detection System using the following program: 48° C. for 30 minutes, 95° C. for 10 minutes, 40 cycles of 95° C. for 15 sec, 60° C. for 1 minute. The ΔCT values (CT5B-CTGAPDH) were plotted against the concentration of test compound and fitted to the sigmoid dose-response model using XLfit4 (MDL). […] Alternatively, to quantitate the absolute amount of replicon RNA, a standard curve was established by including serially diluted T7 transcripts of replicon RNA in the Taqman assay. All TaqMan® reagents were from PE Applied Biosystems. Such an assay procedure was described in detail in e.g. Malcolm et al., Antimicrobial Agents and Chemotherapy 50: 1013-1020 (2006).
(§3) Wherein gt1a_H77 was prepared as described in Yi et al., J Virol. 2004, 78(15):7904-15; gt1b_con1 was prepared as described in Lohmann et al., Science 1999, 285(5424):110-3; and gt2a_JFH was prepared as described in Kato et al., Gastroenterology. 2003, 125(6):1808-17. Chimeric replicons contain NS5A from patient isolates of genotypes 1a, 1b, 2b, 3a and 4a as indicated.

[1] = test system: HCV replicon 1a (Y93H) mutant; experiment: Cell-based HCV replicon assay (TaqMan), genotype 1a mutant Y93H; details: read-out: HCV replicon EC50 1a (Y93H)
Procedure: as §1, §2, §3

HCV replicon gt1a_H77 = experiment: Cell-based HCV replicon assay (TaqMan), genotype 1a (H77); details: replicon 1a (H77), replicon RNA by TaqMan, day 3
Procedure: as §1, §2, §3

[2] = test system: HCV replicon 1a (L31V) mutant; experiment: Cell-based HCV replicon assay (TaqMan), genotype 1a mutant L31V; details: Hepatitis C virus, 72 h, read-out: HCV replicon EC50 1a (L31V)
Procedure: as §1, §2, §3

[3] = test system: HCV chimeric replicon with NS5A of genotype 3a (NC00982); experiment: Cell-based HCV replicon assay (TaqMan), chimeric replicon genotype 3a (NC00982); details: replicon RNA by TaqMan, day 3
Procedure: as §1, §2, §3

[4] = test system: HCV chimeric replicon with NS5A of genotype 4a (DQ41878); experiment: Cell-based HCV replicon assay (TaqMan), chimeric replicon genotype 4a (DQ41878); details: read-out: HCV replicon EC50 4a (DQ41878)
Procedure: as §1, §2, §3

HCV replicon gt2a_JFH = experiment: Cell-based HCV replicon assay (TaqMan), genotype 2a (JFH); details: replicon 2a (JFH), replicon RNA by TaqMan, day 3
Procedure: as §1, §2, §3

[5] = test system: HCV chimeric replicon with NS5A of genotype 2b (AB03090); experiment: Cell-based HCV replicon assay (TaqMan), chimeric replicon genotype 2b (AB03090); details: replicon RNA by TaqMan, day 3
Procedure: as §1, §2, §3

[6] = Hepatitis C virus, 72 h, read-out: HCV replicon EC50 3a (NC00982), chimeric replicon 3a (NC00982)

COC(=O)N[C@H](C(=O)N1C[Si](C)(C)C[C@H]1c1nc2ccc3cc(-c4ccc(-c5cnc([C@@H]6[C@@H]7C[C@@H]([C@@H](F)[C@H]7F)N6C(=O)[C@@H](NC(=O)OC6(C)CC6)C(C)C)[nH]5)cc4)ccc3c2[nH]1)C(C)C [Compound 101]
EC50 (HCV replicon gt1b_con1; Hepatitis C virus, 72 h): 0.023 nM
EC50 ([1]; Hepatitis C virus, 72 h): > 1000 nM
EC50 (HCV replicon gt1a_H77; Hepatitis C virus, 72 h): > 1 nM
EC50 [2]: > 1000 nM
EC50 [3, 6]: 54.6 nM
EC50 ([4]; Hepatitis C virus, 72 h): > 100 nM
EC50 (HCV replicon gt2a_JFH; Hepatitis C virus, 72 h): > 10 nM

COC(=O)N[C@H](C(=O)N1C[Si](C)(C)C[C@H]1c1ncc(-c2ccc(-c3ccc4c(ccc5nc([C@@H]6CC(F)CN6C(=O)[C@@H](NC(=O)OC)C(C)C)[nH]c54)c3)cc2)[nH]1)C(C)C (stereo partly drawn) [Compound 53]
EC50 (HCV replicon gt1b_con1; Hepatitis C virus, 72 h): 0.003 nM
EC50 ([1]; Hepatitis C virus, 72 h): 10 nM
EC50 (HCV replicon gt1a_H77; Hepatitis C virus, 72 h): 0.016 nM
EC50 [2]: 64 nM
EC50 [3, 6]: 0.09 nM
EC50 ([4]; Hepatitis C virus, 72 h): 0.1 nM
EC50 (HCV replicon gt2a_JFH; Hepatitis C virus, 72 h): 0.026 nM

CC(C)OC(=O)N[C@H](C(=O)N1CCC(F)(F)C[C@H]1c1ncc(-c2ccc(-c3ccc4c(ccc5nc([C@@H]6C[Si](C)(C)CN6C(=O)[C@@H](NC(=O)OC(C)C)C(C)C)[nH]c54)c3)cc2)[nH]1)C(C)C [Compound 88]
EC50 (HCV replicon gt1b_con1; Hepatitis C virus, 72 h): 4 nM
EC50 ([1]; Hepatitis C virus, 72 h): > 1000 nM
EC50 (HCV replicon gt1a_H77; Hepatitis C virus, 72 h): > 1 nM
EC50 [2]: > 1000 nM
EC50 [3, 6]: > 100 nM
EC50 ([4]; Hepatitis C virus, 72 h): > 100 nM
EC50 (HCV replicon gt2a_JFH; Hepatitis C virus, 72 h): > 10 nM

COC(=O)N[C@H](C(=O)N1CC(F)(F)C[C@H]1c1ncc(-c2ccc(-c3ccc4c(ccc5nc([C@@H]6C[Si](C)(C)CN6C(=O)[C@@H](NC(=O)OC)C(C)C)[nH]c54)c3)cc2)[nH]1)C(C)C [Compound 92]
EC50 (HCV replicon gt1b_con1): 0.003 nM
EC50 ([1]; replicon 1a mutant Y93H, replicon RNA by TaqMan, day 3): 46 nM
EC50 (HCV replicon gt1a_H77): 0.015 nM
EC50 ([3]; read-out: HCV replicon EC50 3a (NC00982), chimeric replicon 3a (NC00982)): 0.35 nM
EC50 ([4]; chimeric replicon 4a (DQ41878), replicon RNA by TaqMan, day 3): 0.02 nM
EC50 (HCV replicon gt2a_JFH): 0.02 nM
EC50 ([5]; read-out: HCV replicon EC50 2b (AB03090), chimeric replicon 2b (AB03090)): 48 nM

CC(C)[C@H](NC(=O)OC1(C)CC1)C(=O)N1CCC(F)(F)C[C@H]1c1ncc(-c2ccc(-c3ccc4c(ccc5nc([C@@H]6C[Si](C)(C)CN6C(=O)[C@@H](NC(=O)OC6(C)CC6)C(C)C)[nH]c54)c3)cc2)[nH]1 [Compound 86]
EC50 (HCV replicon gt1b_con1; Hepatitis C virus, 72 h): 141 nM
EC50 ([1]; Hepatitis C virus, 72 h): > 1000 nM
EC50 (HCV replicon gt1a_H77; Hepatitis C virus, 72 h): > 1 nM
EC50 [2]: > 1000 nM
EC50 [3, 6]: > 100 nM
EC50 ([4]; Hepatitis C virus, 72 h): > 100 nM
EC50 (HCV replicon gt2a_JFH; Hepatitis C virus, 72 h): > 10 nM

COC(=O)N[C@H](C(=O)N1CC(F)(F)C[C@H]1c1nc2ccc3cc(-c4ccc(-c5cnc([C@@H]6C[Si](C)(C)CN6C(=O)[C@@H](NC(=O)OC)C6CC6)[nH]5)cc4)ccc3c2[nH]1)C(C)C [Compound 105]
EC50 (HCV replicon gt1b_con1; Hepatitis C virus, 72 h): 0.003 nM
EC50 ([1]; Hepatitis C virus, 72 h): 151 nM
EC50 (HCV replicon gt1a_H77; Hepatitis C virus, 72 h): 0.021 nM
EC50 [2]: 43 nM
EC50 [3, 6]: 0.17 nM
EC50 ([4]; Hepatitis C virus, 72 h): 0.18 nM
EC50 (HCV replicon gt2a_JFH; Hepatitis C virus, 72 h): 0.141 nM

COC(=O)N[C@H](C(=O)N1CC[C@H](C)[C@H]1c1nc2ccc3cc(-c4ccc(-c5cnc([C@@H]6C[Si](C)(C)CN6C(=O)[C@@H](NC(=O)OC)C(C)C)[nH]5)cc4)ccc3c2[nH]1)C(C)C [Compound 95]
EC50 (HCV replicon gt1b_con1; Hepatitis C virus, 72 h): 0.015 nM
EC50 ([1]; Hepatitis C virus, 72 h): 210 nM
EC50 (HCV replicon gt1a_H77; Hepatitis C virus, 72 h): > 0.1 nM
EC50 [2]: 9 nM
EC50 [3, 6]: 0.066 nM
EC50 ([4]; Hepatitis C virus, 72 h): 1.22 nM
EC50 (HCV replicon gt2a_JFH; Hepatitis C virus, 72 h): 0.032 nM

COC(=O)N[C@@H](C)C(=O)N1C[Si](C)(C)C[C@H]1c1ncc(-c2ccc(-c3ccc4c(ccc5nc([C@@H]6CC(F)(F)CN6C(=O)[C@@H](NC(=O)OC)C(C)C)[nH]c54)c3)cc2)[nH]1 [Compound 106]
EC50 (HCV replicon gt1b_con1; Hepatitis C virus, 72 h): 0.006 nM
EC50 ([1]; Hepatitis C virus, 72 h): 52.6 nM
EC50 (HCV replicon gt1a_H77; Hepatitis C virus, 72 h): 0.016 nM
EC50 [2]: 37.1 nM
EC50 [3, 6]: 0.435 nM
EC50 ([4]; Hepatitis C virus, 72 h): 0.429 nM
EC50 (HCV replicon gt2a_JFH; Hepatitis C virus, 72 h): 0.046 nM

COC(=O)N[C@H](C(=O)N1C[Si](C)(C)C[C@H]1c1nc2ccc3cc(-c4ccc(-c5cnc([C@@H]6CCCN6C(=O)[C@@H](NC(=O)OC)C67CC(C(F)(F)F)(C6)C7)[nH]5)cc4)ccc3c2[nH]1)C(C)C [Compound 81]
EC50 (HCV replicon gt1b_con1; Hepatitis C virus, 72 h): 0.012 nM
EC50 ([1]; Hepatitis C virus, 72 h): > 1000 nM
EC50 (HCV replicon gt1a_H77; Hepatitis C virus, 72 h): 0.94 nM
EC50 [2]: > 100 nM
EC50 [3, 6]: 9.69 nM
EC50 ([4]; Hepatitis C virus, 72 h): > 10 nM
EC50 (HCV replicon gt2a_JFH; Hepatitis C virus, 72 h): 0.712 nM

COC(=O)N[C@H](C(=O)N1C[Si](C)(C)C[C@H]1c1ncc(-c2ccc(-c3ccc4c(ccc5nc([C@@H]6CC(F)(F)CN6C(=O)[C@@H](NC(=O)OC)C(C)C)[nH]c54)c3)nc2)[nH]1)C(C)C [Compound 66]
EC50 (HCV replicon gt1b_con1; Hepatitis C virus, 72 h): 0.005 nM
EC50 ([1]; Hepatitis C virus, 72 h): 260 nM
EC50 (HCV replicon gt1a_H77; Hepatitis C virus, 72 h): 0.002 nM
EC50 [2]: 32 nM
EC50 [3, 6]: 0.15 nM
EC50 (HCV replicon gt2a_JFH; Hepatitis C virus, 72 h): 0.08 nM
EC50 ([5]; Hepatitis C virus, 72 h, read-out: HCV replicon EC50 2b (AB03090), chimeric replicon 2b (AB03090)): > 100 nM

COC(=O)N[C@H](C(=O)N1C[Si](C)(C)C[C@H]1c1ncc(-c2ccc(-c3ccc4c(ccc5nc([C@H]6[C@@H]7C[C@@H]([C@@H](F)[C@H]7F)N6C(=O)[C@@H](NC(=O)OC)C(C)C)[nH]c54)c3)cc2)[nH]1)C(C)C [Compound 102]
EC50 (HCV replicon gt1b_con1; Hepatitis C virus, 72 h): < 2 nM
EC50 ([1]; Hepatitis C virus, 72 h): 438 nM
EC50 (HCV replicon gt1a_H77; Hepatitis C virus, 72 h): 0.084 nM
EC50 [2]: 113 nM
EC50 [3, 6]: 7.5 nM
EC50 ([4]; Hepatitis C virus, 72 h): 0.3 nM
EC50 (HCV replicon gt2a_JFH; Hepatitis C virus, 72 h): 0.097 nM

COC(=O)N[C@H](C(=O)N1C[Si](C)(C)C[C@H]1c1nc2ccc3cc(-c4ccc(-c5cnc([C@@H]6[C@@H]7C[C@@H]([C@@H](F)[C@H]7F)N6C(=O)[C@@H](NC(=O)OC)C(C)C)[nH]5)cc4)ccc3c2[nH]1)C(C)C [Compound 100]
EC50 (HCV replicon gt1b_con1; Hepatitis C virus, 72 h): 0.002 nM
EC50 ([1]; Hepatitis C virus, 72 h): 204 nM
EC50 (HCV replicon gt1a_H77; Hepatitis C virus, 72 h): 0.043 nM
EC50 [2]: 117 nM
EC50 [3, 6]: 7.4 nM
EC50 ([4]; Hepatitis C virus, 72 h): < 0.2 nM
EC50 (HCV replicon gt2a_JFH; Hepatitis C virus, 72 h): 0.023 nM
